Kd data for 25 molecules are collected here from patent US11414431B2, “Substituted pyrazolo[1,5-a]pyrimidines as TYK2 inhibitors” (Nimbus Lakshmi, Inc., priority 2018, dated 2022).

The structures appear in SMILES notation.

human TYK2 (JH2domain-pseudokinase), sequence (P29597 556-888): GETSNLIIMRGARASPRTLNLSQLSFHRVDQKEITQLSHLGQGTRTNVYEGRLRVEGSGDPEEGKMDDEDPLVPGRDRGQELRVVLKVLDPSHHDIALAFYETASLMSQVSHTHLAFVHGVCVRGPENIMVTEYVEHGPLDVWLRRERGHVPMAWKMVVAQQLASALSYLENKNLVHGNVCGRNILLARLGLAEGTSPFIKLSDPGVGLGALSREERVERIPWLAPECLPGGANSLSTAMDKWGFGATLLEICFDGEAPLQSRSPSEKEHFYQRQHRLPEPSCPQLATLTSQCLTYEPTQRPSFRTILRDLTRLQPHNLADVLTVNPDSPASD

In this test the target is human TYK2 (JH2domain-pseudokinase) (Homo sapiens (Human), UniProt P29597). Briefly: TYK2 JH2 Domain Binding Assay (KINOMEscan). The note with it: 11-point 3-fold dilution, top concentration 30,000 nM, duplicate; read-out: hTYK2_JH2_Binding (Kd; nM). The protocol:
Binding constants for compounds of the present invention against the JH2 domain were determined by the following protocol for a KINOMEscan® assay (DiscoveRx). A fusion protein of a partial length construct of human TYK2 (JH2domain-pseudokinase) (amino acids G556 to D888 based on reference sequence NP_003322.3) and the DNA binding domain of NFkB was expressed in transiently transfected HEK293 cells. From these HEK 293 cells, extracts were prepared in M-PER extraction buffer (Pierce) in the presence of Protease Inhibitor Cocktail Complete (Roche) and Phosphatase Inhibitor Cocktail Set II (Merck) per manufacturers' instructions. The TYK2(JH2domain-pseudokinase) fusion protein was labeled with a chimeric double-stranded DNA tag containing the NFkB binding site (5′-[…]-3′) fused to an amplicon for qPCR readout, which was added directly to the expression extract (the final concentration of DNA-tag in the binding reaction is 0.1 nM).
The liganded beads were blocked with excess biotin and washed with blocking buffer (SeaBlock (Pierce), 1% BSA, 0.05% Tween 20, 1 mM DTT) to remove unbound ligand and to reduce nonspecific binding.
Extracts were loaded with DNA-tag and diluted into the binding reaction in a two step process. First extracts were diluted 1:100 in 1× binding buffer (PBS/0.05% Tween 20/10 mM DTT/0.1% BSA/2 μg/ml sonicated salmon sperm DNA) containing 10 nM DNA-tag. This dilution was allowed to equilibrate at room temperature for 15 minutes and then subsequently diluted 1:100 in 1× binding buffer. […] Kds were determined using an 11-point 3-fold compound dilution series with three DMSO control points. […] The compounds were then diluted directly into the assays such that the final concentration of DMSO was 0.9%. All reactions performed in polypropylene 384-well plates. Each was a final volume of 0.02 mL. Assays were incubated with shaking for 1 hour at room temperature. Then the beads were pelleted and washed with wash buffer (lx PBS, 0.05% Tween 20) to remove displaced kinase and test compound. […] The qPCR protocol consisted of a 10 minute hot start at 95° C., followed by 35 cycles of 95° C. for 15 seconds, 60° C. for 1 minute.
Kds were determined using an 11-point 3-fold compound dilution series with three DMSO control points. […] The compounds were then diluted directly into the assays such that the final concentration of DMSO was 0.9%. The Kds were determined using a compound top concentration of 30,000 nM. Kd measurements were performed in duplicate.
Binding constants (Kds) were calculated with a standard dose-response curve using the Hill equation: […]
The Hill Slope was set to −1.
In the case of `CO[C@@H]1CC[C@H]1NC(=O)c1cnn2c3c(c(Nc4cccn([C@H]5[C@@H]6COC[C@@H]65)c4=O)nc12)OCCN3` [Compound I-763], the Kd is more than 10 nM.
As for `CNc1cc(Nc2cccn(-c3ncco3)c2=O)nc2c(C(=O)NC3CC[C@@H](OC)C3)cnn12` (mixture of isomers) [Compound I-71, N-((trans-1,3)-3-Methoxycyclopentyl)-7-(methylamino)-5-((1-(oxazol-2-yl)-2-oxo-1,2-dihydropyridin-3-yl)amino)pyrazolo[1,5-a]pyrimidine-3-carboxamide], the Kd was in the range of 0.2 to 1 nM.
For `CNc1cc(-c2cn([C@@H]3CCOC[C@H]3O)c3ncccc23)nc2c(C(=O)N[C@@H]3C[C@@H]3F)cnn12` [Compound I-505], the Kd was less than 0.2 nM.
Consider `CNc1cc(Nc2cccn(C(C)C)c2=O)nc2c(C(=O)N[C@H]3C[C@@H]3OC)cnn12` [Compound I-30, 5-((1-Isopropyl-2-oxo-1,2-dihydropyridin-3-yl)amino)-N-((1S,2S)-2-methoxycyclopropyl)-7-(methylamino)pyrazolo[1,5-a]pyrimidine-3-carboxamide], for which the Kd lay within 0.2 to 1 nM.
In the case of `CNc1cc(Nc2cccn([C@@H]3CCC[C@@H]3O)c2=O)nc2c(C(=O)N[C@@H]3CC[C@@H](OC)C3)cnn12` [Compound I-78, 5-((1-((1R,2S)-2-Hydroxycyclopentyl)-2-oxo-1,2-dihydropyridin-3-yl)amino)-N-((1R,3R)-3-methoxycyclopentyl)-7-(methylamino)pyrazolo[1,5-a]pyrimidine-3-carboxamide] it was 0.2 to 1 nM; in that of `CNc1cc(Nc2cccn([C@@H]3CC[C@@H]3O)c2=O)nc2c(C(=O)N[C@H]3CC[C@H](OC)C3)cnn12` [Compound I-82, 5-((1-((1R,2S)-2-Hydroxycyclobutyl)-2-oxo-1,2-dihydropyridin-3-yl)amino)-N-((1S,3S)-3-methoxycyclopentyl)-7-(methylamino)pyrazolo[1,5-a]pyrimidine-3-carboxamide], more than 10 nM; in that of `CNc1cc(Nc2cccn([C@H]3C[C@@H]3F)c2=O)nc2c(C(=O)N[C@@H]3CC[C@@H]3O)cnn12` [Compound I-13, 5-((1-((1S,2S)-2-Fluorocyclopropyl)-2-oxo-1,2-dihydropyridin-3-yl)amino)-N-((1R,2S)-2-hydroxycyclobutyl)-7-(methylamino)pyrazolo[1,5-a]pyrimidine-3-carboxamide], 0.2 to 1 nM.
In the case of `CNc1cc(Nc2cccn([C@H]3CCC[C@@](C)(O)C3)c2=O)nc2c(C(=O)NC3CC3)cnn12` [Compound I-2, N-Cyclopropyl-5-((1-((1S,3R)-3-hydroxy-3-methylcyclohexyl)-2-oxo-1,2-dihydropyridin-3-yl)amino)-7-(methylamino)pyrazolo[1,5-a]pyrimidine-3-carboxamide] it was 0.2 to 1 nM; in that of `CNc1cc(Nc2cccn(C3CC(F)(F)C3)c2=O)nc2c(C(=O)N[C@@H]3CC[C@@H](OC)C3)cnn12` [Compound I-72, 5-((1-(3,3-Difluorocyclobutyl)-2-oxo-1,2-dihydropyridin-3-yl)amino)-N-((1R,3R)-3-methoxycyclopentyl)-7-(methylamino)pyrazolo[1,5-a]pyrimidine-3-carboxamide], 1 to 10 nM.
To `CNc1cc(Nc2cccn([C@H]3CCC[C@H]3O)c2=O)nc2c(C(=O)N[C@@H]3CC[C@@H](OC)C3)cnn12` [Compound I-87, 5-((1-((1S,2R)-2-Hydroxycyclopentyl)-2-oxo-1,2-dihydropyridin-3-yl)amino)-N-((1R,3R)-3-methoxycyclopentyl)-7-(methylamino)pyrazolo[1,5-a]pyrimidine-3-carboxamide] belongs more than 10 nM.
For the molecule `CNc1cc(Nc2cccn([C@H]3CCC[C@H]3O)c2=O)nc2c(C(=O)N[C@H]3CC[C@H](OC)C3)cnn12` [Compound I-88, 5-((1-((1S,2R)-2-Hydroxycyclopentyl)-2-oxo-1,2-dihydropyridin-3-yl)amino)-N-((1S,3S)-3-methoxycyclopentyl)-7-(methylamino)pyrazolo[1,5-a]pyrimidine-3-carboxamide], the Kd was more than 10 nM.
On to `CNc1cc(Nc2cccn([C@H]3CC[C@H]3O)c2=O)nc2c(C(=O)NC3CCC[C@@H](OC)C3)cnn12` (stereo partly drawn) [Compound I-103, 5-((1-((1S,2R)-2-Hydroxycyclobutyl)-2-oxo-1,2-dihydropyridin-3-yl)amino)-N-((trans-1,3)-3-methoxycyclohexyl)-7-(methylamino)pyrazolo[1,5-a]pyrimidine-3-carboxamide], for which the Kd lay in the range of 1 to 10 nM.
In the case of `CNc1cc(-c2cn([C@H]3CCCOC3)c3ncccc23)nc2c(C(=O)N[C@H]3COC[C@H]3O)cnn12` [Compound I-60, N-((3S,4S)-4-Hydroxytetrahydrofuran-3-yl)-7-(methylamino)-5-(1-((S)-tetrahydro-2H-pyran-3-yl)-1H-pyrrolo[2,3-b]pyridin-3-yl)pyrazolo[1,5-a]pyrimidine-3-carboxamide] it was less than 0.2 nM.
On to `CNc1cc(Nc2cccn([C@H]3C[C@@H]3F)c2=O)nc2c(C(=O)N[C@H]3CC[C@@H](O)C3)cnn12` [Compound I-45, 5-((1-((1S,2S)-2-Fluorocyclopropyl)-2-oxo-1,2-dihydropyridin-3-yl)amino)-N-((1S,3R)-3-hydroxycyclopentyl)-7-(methylamino)pyrazolo[1,5-a]pyrimidine-3-carboxamide], for which the dissociation constant Kd lay in the range of 0.2 to 1 nM.
With `CNc1cc(-c2cn(CCN3CCOCC3)c3ncccc23)nc2c(C(=O)N[C@@H]3CC[C@H]3OC)cnn12` [Compound I-55, N-((1R,2R)-2-Methoxycyclobutyl)-7-(methylamino)-5-(1-(2-morpholinoethyl)-1H-pyrrolo[2,3-b]pyridin-3-yl)pyrazolo[1,5-a]pyrimidine-3-carboxamide], the Kd lay in the range of 0.2 to 1 nM.
In the case of `CNc1cc(Nc2cccn([C@H]3C[C@@H]3F)c2=O)nc2c(C(=O)N[C@@H]3CC[C@H]3OC)cnn12` [Compound I-50, 5-((1-((1S,2S)-2-Fluorocyclopropyl)-2-oxo-1,2-dihydropyridin-3-yl)amino)-N-((1R,2R)-2-methoxycyclobutyl)-7-(methylamino)pyrazolo[1,5-a]pyrimidine-3-carboxamide] it was 1 to 10 nM.
To `CNc1cc(-c2cn(C3CN(C)C3)c3ncccc23)nc2c(C(=O)NC3COC[C@H]3O)cnn12` (stereo partly shown) [Compound I-714] belongs more than 10 nM.
To `CNc1ccc(-c2cc(NC)n3ncc(C(=O)N[C@H]4CC[C@@H]4OC)c3n2)n2ccnc12` [Compound I-489] belongs more than 10 nM; to `CNc1cc(-c2cnc3n([C@@H]4COC[C@H]4OC)cccc2-3)nc2c(C(=O)N[C@@H]3C[C@@H]3F)cnn12` [Compound I-822], less than 0.2 nM.
`CNc1cc(Nc2cccn(-c3ncco3)c2=O)nc2c(C(=O)N[C@@H]3CC[C@@H](OC)C3)cnn12` [Compound I-83, N-((1R,3R)-3-Methoxycyclopentyl)-7-(methylamino)-5-((1-(oxazol-2-yl)-2-oxo-1,2-dihydropyridin-3-yl)amino)pyrazolo[1,5-a]pyrimidine-3-carboxamide]: the Kd was 0.2 to 1 nM.
In the case of `CNc1cc(Nc2cccn([C@@H]3CC[C@@H]3O)c2=O)nc2c(C(=O)N[C@@H]3CCC[C@@H](OC)C3)cnn12` [Compound I-98, 5-((1-((1R,2S)-2-Hydroxycyclobutyl)-2-oxo-1,2-dihydropyridin-3-yl)amino)-N-((trans-1,3)-3-methoxycyclohexyl)-7-(methylamino)pyrazolo[1,5-a]pyrimidine-3-carboxamide] it was less than 0.2 nM.
To `CNc1cc(-c2cn([C@H]3CCOC[C@@H]3O)c3ncccc23)nc2c(C(=O)NC3CC3)cnn12` [Compound I-498] belongs less than 0.2 nM; to `CNc1cc(Nc2cccn(C3CC(F)(F)C3)c2=O)nc2c(C(=O)N[C@@H]3CCC[C@@]3(C)O)cnn12` [Compound I-91, 5-((1-(3,3-Difluorocyclobutyl)-2-oxo-1,2-dihydropyridin-3-yl)amino)-N-((1R,2R)-2-hydroxy-2-methylcyclopentyl)-7-(methylamino)pyrazolo[1,5-a]pyrimidine-3-carboxamide], less than 0.2 nM; to `CNc1cc(Nc2cccn(-c3ccccn3)c2=O)nc2c(C(=O)N[C@H]3C[C@H]3F)cnn12` [Compound I-127], less than 0.2 nM.
As for `CNc1cc(-c2cn([C@@H]3CCOC[C@H]3O)c3ncccc23)nc2c(C(=O)NC3CC3)cnn12` [Compound I-499], the Kd is less than 0.2 nM.
